Source: patent US20250282770A1, “BIOLUMINESCENT PROBES TO TRACK STEM CELLS IN VIVO” (THE BOARD OF TRUSTEES OF THE UNIVERSITY OF ILLINOIS, priority 2024, published 2025)

Legend:
[1] = target: T1, ALDH1A1 (Homo sapiens, UniProt P00352); experiment: AlDeLuc isoform selectivity assay; assay type: biochemical; details: 2 μM, pre-activated with HCl, 60 min room temperature
T1 construct: inferred from Ni-NTA purification; made in house; host or cells: E. coli BL21(DE3)
T1 sequence (P00352 1-501): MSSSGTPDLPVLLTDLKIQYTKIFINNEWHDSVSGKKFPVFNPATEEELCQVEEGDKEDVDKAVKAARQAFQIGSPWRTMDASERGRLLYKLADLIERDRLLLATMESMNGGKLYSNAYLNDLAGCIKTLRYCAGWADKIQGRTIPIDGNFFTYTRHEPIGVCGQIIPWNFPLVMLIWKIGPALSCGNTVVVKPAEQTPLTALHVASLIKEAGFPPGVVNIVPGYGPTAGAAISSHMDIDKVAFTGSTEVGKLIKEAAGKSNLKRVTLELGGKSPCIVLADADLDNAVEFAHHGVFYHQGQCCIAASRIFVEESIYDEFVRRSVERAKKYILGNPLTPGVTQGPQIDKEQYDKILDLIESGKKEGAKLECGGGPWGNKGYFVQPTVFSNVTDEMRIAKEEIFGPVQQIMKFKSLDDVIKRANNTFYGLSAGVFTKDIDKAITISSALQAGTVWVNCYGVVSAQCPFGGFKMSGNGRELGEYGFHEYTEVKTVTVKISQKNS
Protocol: (§1) Expression and Purification of ALDH Expression constructs for recombinant human ALDH1A1, ALDH1A2, ALDH1A3, and ALDH2, ALDH3A1, ALDH4A1, and ALDH5A1 were generously provided by Prof. Daria Mochly-Rosen (Stanford, Chemical and Systems Biology). E. coli BL21(DE3) cells with transformed with each of the above constructs. Colonies were selected from an agar plate containing […] ampicillin and grown overnight (37° C., 220 rpm) in LB media containing […] ampicillin. The overnight culture (10 mL) was inoculated into 1000 mL LB supplemented with […] ampicillin. When the O.D. reached ˜0.5, IPTG was added to a final concentration of 1 mM and incubated overnight (30° C., 200 rpm, 18 h). The cells were harvested via centrifugation (4° C., 4,000 rpm, 90 min) and the cell pellets were stored at −80° C. until purification.
(§2) ALDH Isoform Activity Determination. The activity of each isoform of ALDH was confirmed by monitoring the production of NADH at 340 nm when incubated with the most used substrate for that enzyme (i.e., benzaldehyde for ALDH3A1 and propionaldehyde for all other isoforms). Each isoform was diluted with 50 mM triethanolamine (TEA, pH 7.4) to a final concentration of 0.5 μM and placed in a 1 mL quartz cuvette. Prior to measurement, NAD^+ was added to a final concentration of 2.5 mM and the preferred substrate was added to a final concentration of 1 mM. Absorbance spectra was taken from 300 to 500 nm every 30 seconds for 15 minutes. Activity for each enzyme was calculated from the slope of absorbance increase at 340 nm over time.
(§3) AlDeLuc Isoform Selectivity Assay. Activation of AlDeLuc was assessed using the necessary amount of enzyme that gave the activity of 0.5 nmol of substrate turned over/minute. All enzymatic reactions were performed in 50 mM triethanolamine (TEA) buffer (pH 7.4) with 2.5 mM NAD^+. To prepare the probe solution, AlDeLuc was dissolved in DMSO and incubated with 1 M HCl. After an hour, this solution was neutralized with 1 M NaOH, and diluted with PBS. To a clear 24-well plate, TEA buffer, NAD^+, the ALDH isoform, and then AlDeLuc (2 μM) were added sequentially to a final volume of 1 mL. After an hour incubation at room temperature, ATP-MgSO4 (45 μL, prepared by mixing 17.78 mM ATP-Mg and 35.56 mM MgSO4 in a 1:1 ratio in PBS buffer) and luciferase (5 μL, 1 mg/mL in PBS containing 10% glycerol) were added to initiate bioluminescence production. The wells were immediately imaged using the IVIS imaging system in open mode. ROIs were drawn around each well and the signal intensity was quantified using the Living Image Analysis. The signal enhancement was normalized relative to the ALDH2 isoform.

[2] = target: T2, ALDH5A1 (Homo sapiens, UniProt P51649); experiment: AlDeLuc isoform selectivity assay; assay type: biochemical; details: 2 μM, pre-activated with HCl, 60 min room temperature
T2 construct: inferred from Ni-NTA purification; made in house; host or cells: E. coli BL21(DE3)
T2 sequence (P51649 48-535): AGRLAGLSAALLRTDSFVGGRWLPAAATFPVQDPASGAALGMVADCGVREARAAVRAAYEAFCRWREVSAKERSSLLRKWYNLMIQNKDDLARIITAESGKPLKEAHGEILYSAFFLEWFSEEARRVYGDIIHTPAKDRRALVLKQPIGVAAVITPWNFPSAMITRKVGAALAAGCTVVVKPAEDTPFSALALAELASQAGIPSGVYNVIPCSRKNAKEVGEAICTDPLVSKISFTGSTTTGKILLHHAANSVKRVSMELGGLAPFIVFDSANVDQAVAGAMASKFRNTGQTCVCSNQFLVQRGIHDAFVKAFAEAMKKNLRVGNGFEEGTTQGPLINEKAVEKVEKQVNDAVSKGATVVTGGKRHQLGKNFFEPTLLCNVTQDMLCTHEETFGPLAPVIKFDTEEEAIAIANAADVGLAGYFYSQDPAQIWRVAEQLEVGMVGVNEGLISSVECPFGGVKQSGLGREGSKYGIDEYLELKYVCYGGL
Protocol: as §1, §2, §3

[3] = target: T3, ALDH4A1 (Homo sapiens, UniProt P30038); experiment: AlDeLuc isoform selectivity assay; assay type: biochemical; details: 2 μM, pre-activated with HCl, 60 min room temperature
T3 construct: inferred from Ni-NTA purification; made in house; host or cells: E. coli BL21(DE3)
T3 sequence (P30038 25-563): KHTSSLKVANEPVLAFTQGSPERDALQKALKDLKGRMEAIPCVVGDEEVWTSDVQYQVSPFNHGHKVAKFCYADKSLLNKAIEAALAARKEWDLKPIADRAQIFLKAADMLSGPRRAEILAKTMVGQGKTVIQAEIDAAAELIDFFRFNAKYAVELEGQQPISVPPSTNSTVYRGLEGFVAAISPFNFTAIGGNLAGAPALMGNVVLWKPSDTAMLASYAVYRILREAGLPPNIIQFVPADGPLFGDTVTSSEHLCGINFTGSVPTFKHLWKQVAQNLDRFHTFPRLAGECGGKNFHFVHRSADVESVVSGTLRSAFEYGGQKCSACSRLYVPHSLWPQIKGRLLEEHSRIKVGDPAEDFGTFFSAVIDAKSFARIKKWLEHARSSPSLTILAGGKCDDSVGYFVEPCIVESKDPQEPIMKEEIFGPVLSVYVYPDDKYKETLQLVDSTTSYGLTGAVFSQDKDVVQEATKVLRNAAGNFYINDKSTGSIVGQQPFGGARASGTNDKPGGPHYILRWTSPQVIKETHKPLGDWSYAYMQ
Protocol: as §1, §2, §3

[4] = target: T4, ALDH3A1 (Homo sapiens, UniProt P30838); experiment: AlDeLuc isoform selectivity assay; assay type: biochemical; details: 2 μM, pre-activated with HCl, 60 min room temperature
T4 construct: inferred from Ni-NTA purification; made in house; host or cells: E. coli BL21(DE3)
T4 sequence (P30838 whole entry, canonical isoform): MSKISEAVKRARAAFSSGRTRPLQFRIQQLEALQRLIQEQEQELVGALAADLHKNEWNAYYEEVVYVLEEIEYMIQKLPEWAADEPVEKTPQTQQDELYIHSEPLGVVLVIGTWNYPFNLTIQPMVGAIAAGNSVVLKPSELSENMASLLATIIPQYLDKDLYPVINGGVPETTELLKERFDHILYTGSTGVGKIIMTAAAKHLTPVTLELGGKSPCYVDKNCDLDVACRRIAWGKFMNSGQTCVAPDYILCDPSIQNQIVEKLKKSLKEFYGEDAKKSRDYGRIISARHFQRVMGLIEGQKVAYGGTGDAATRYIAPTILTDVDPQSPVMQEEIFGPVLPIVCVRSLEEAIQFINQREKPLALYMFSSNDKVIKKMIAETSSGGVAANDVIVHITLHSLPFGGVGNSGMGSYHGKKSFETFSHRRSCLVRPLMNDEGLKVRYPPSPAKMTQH
Protocol: as §1, §2, §3

[5] = target: T5, ALDH2 (Homo sapiens, UniProt P05091); experiment: AlDeLuc isoform selectivity assay; assay type: biochemical; details: 2 μM, pre-activated with HCl, 60 min room temperature
T5 construct: inferred from Ni-NTA purification; made in house; host or cells: E. coli BL21(DE3)
T5 sequence (P05091 18-517): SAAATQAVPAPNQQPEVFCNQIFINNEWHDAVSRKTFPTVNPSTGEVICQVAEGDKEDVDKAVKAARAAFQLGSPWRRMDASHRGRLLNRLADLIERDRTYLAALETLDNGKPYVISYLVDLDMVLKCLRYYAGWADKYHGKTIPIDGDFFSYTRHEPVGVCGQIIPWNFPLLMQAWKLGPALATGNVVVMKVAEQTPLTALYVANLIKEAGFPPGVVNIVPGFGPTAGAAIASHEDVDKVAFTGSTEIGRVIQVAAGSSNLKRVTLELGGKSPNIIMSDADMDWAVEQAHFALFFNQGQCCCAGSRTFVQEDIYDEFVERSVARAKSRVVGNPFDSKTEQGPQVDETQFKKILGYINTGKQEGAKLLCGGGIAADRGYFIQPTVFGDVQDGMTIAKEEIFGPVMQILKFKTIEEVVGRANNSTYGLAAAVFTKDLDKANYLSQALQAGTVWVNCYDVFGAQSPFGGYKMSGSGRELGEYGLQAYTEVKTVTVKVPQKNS
Protocol: as §1, §2, §3

[6] = target: T6, ALDH1A3 (Homo sapiens, UniProt P47895); experiment: AlDeLuc isoform selectivity assay; assay type: biochemical; details: 2 μM, pre-activated with HCl, 60 min room temperature
T6 construct: inferred from Ni-NTA purification; made in house; host or cells: E. coli BL21(DE3)
T6 sequence (P47895 whole entry, canonical isoform): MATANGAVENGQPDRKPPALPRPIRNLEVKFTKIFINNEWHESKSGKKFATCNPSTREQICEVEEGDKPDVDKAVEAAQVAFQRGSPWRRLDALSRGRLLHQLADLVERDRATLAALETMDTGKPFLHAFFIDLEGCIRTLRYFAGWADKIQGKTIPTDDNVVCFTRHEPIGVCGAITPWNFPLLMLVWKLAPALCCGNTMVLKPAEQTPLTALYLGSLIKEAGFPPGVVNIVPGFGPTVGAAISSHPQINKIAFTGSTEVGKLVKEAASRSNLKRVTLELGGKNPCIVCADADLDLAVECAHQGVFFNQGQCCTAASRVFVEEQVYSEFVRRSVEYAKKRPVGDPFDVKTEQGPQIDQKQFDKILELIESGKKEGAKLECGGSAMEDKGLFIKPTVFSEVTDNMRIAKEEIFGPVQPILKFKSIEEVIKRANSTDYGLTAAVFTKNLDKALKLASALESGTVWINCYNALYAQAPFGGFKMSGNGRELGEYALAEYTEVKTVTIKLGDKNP
Protocol: as §1, §2, §3

[7] = target: T7, ALDH1A2 (Homo sapiens, UniProt O94788); experiment: AlDeLuc isoform selectivity assay; assay type: biochemical; details: 2 μM, pre-activated with HCl, 60 min room temperature
T7 construct: inferred from Ni-NTA purification; made in house; host or cells: E. coli BL21(DE3)
T7 sequence (O94788 whole entry, canonical isoform): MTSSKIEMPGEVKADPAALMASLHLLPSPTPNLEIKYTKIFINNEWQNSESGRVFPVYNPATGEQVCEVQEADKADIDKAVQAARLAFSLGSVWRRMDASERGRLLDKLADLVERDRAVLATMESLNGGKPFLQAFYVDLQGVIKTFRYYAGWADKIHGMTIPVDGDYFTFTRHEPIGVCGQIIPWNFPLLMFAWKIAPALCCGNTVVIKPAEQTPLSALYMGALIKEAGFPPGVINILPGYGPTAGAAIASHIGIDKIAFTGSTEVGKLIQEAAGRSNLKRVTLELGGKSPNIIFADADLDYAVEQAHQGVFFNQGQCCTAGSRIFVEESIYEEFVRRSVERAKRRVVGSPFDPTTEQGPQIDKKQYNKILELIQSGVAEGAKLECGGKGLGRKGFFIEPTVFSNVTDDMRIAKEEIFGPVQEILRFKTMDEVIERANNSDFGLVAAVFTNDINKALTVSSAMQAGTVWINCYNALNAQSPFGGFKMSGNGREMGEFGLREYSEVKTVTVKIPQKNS
Protocol: as §1, §2, §3

[8] = system: 4T1 murine mammary carcinoma cells; experiment: AlDeLuc activation in 4T1 cells, lysate bioluminescence; assay type: cell-based; details: 4T1 cell lysates; 100 μM, 60 minutes
Protocol: Validation of ALDH-Mediated Activation of AlDeLuc in Murine Breast Cancer Cells. 4T1 cells were cultured in T75 culture flasks. After two days, cells had become ˜90% confluent. An aliquot of RPMI 1640 media (1 mL) was removed from each flask and replaced with either DEAB ([…], 0.5% DMSO) or vehicle (0.5% DMSO). After incubation for one hour, the solutions were aspirated, washed with PBS, and resuspended in fresh RPMI 1640 media (9 mL). Each flask was then incubated with the AlDeLuc (100 μM) and DEAB (500 μM) or AlDeLuc (100 μM) and vehicle (DMSO), each with a final concentration of 1% DMSO. After 60 minutes, this solution was aspirated, washed with fresh PBS, and detached from the culture flasks. The cells were then transferred to a 15 mL centrifuge tube and pelleted at 1000 rpm for 5 minutes at room temp. The cells were resuspended in PBS along with 10% protease inhibitor solution (1 protease inhibitor mini tablet per 10 mL of PBS, Pierce, Thermo Fisher Scientific) and sonicated on ice for 2.5 minutes (pulse 01, 01, 40%). The cell debris was removed via centrifugation and the supernatant was plated ([…]) into a 96-well plate (n=4 for each condition). […] ROIs were drawn around each well and the signal intensity was quantified using the Living Image Analysis software.

For `CCN(CC)c1ccc2nc(C3=N[C@@H](C(OC)OC)CS3)sc2c1` [AlDeLuc, (S)-2-(4-(dimethoxymethyl)-4,5-dihydrothiazol-2-yl)-N,N-diethylbenzo[d]thiazol-6-amine], the bioluminescence [1] was “significant bioluminescence”, the bioluminescence [2] was “only treatment with ALDH1A1 and luciferase generated significant bioluminescence” and the bioluminescence [3] was “only treatment with ALDH1A1 and luciferase generated significant bioluminescence”. The bioluminescence [4] was “only treatment with ALDH1A1 and luciferase generated significant bioluminescence”, the bioluminescence [5] was “only treatment with ALDH1A1 and luciferase generated significant bioluminescence” and the bioluminescence [6] was “only treatment with ALDH1A1 and luciferase generated significant bioluminescence”. The bioluminescence [7] was “only treatment with ALDH1A1 and luciferase generated significant bioluminescence” and the “increase in bioluminescence compared to blank controls” value [8] was 42 fold.
